Where two headings read alike, the source gives them in different places.
Tested on: L1210 cells
Experiment: animal or person
Assay type: in vivo, CDF1 mice
Details: for response vs control in vivo at 0.15 mg/kg / response vs control in vivo at 0.31 mg/kg / response vs control in vivo at 0.625 mg/kg / response vs control in vivo at 1.25 mg/kg / response vs control in vivo at 2.5 mg/kg / response vs control in vivo at 5 mg/kg: Mus musculus, L1210, ip, 1080 h
Experimental: D. Representative compounds of general formula I" were tested against experimental animal tumors as follows: […]
CDF1 mice were administered intraperitoneally (i.p.) with 1×10^5 cells/mouse of L1210 cells. After 24 hours had elapsed since inoculation, the mice were administered the test compounds intraperitoneally once daily for 10 consecutive days and observed for a 45 day period.
The antitumor activity was shown by the prolongation rate of survival day (T/C, %) to the survival day of control mice injected with physiological saline.

[1] = 0.15 mg/kg/day i.p., once daily for 10 days, read-out: Antitumor Activity (T/C, prolongation rate of survival day)
[2] = 0.31 mg/kg/day i.p., once daily for 10 days, read-out: Antitumor Activity (T/C, prolongation rate of survival day)
[3] = 0.625 mg/kg/day i.p., once daily for 10 days, read-out: Antitumor Activity (T/C, prolongation rate of survival day)
[4] = 0.15 mg/kg/day i.p., once daily for 10 days
[5] = 0.31 mg/kg/day i.p., once daily for 10 days
[6] = 0.625 mg/kg/day i.p., once daily for 10 days
[7] = 1.25 mg/kg/day i.p., once daily for 10 days
[8] = 2.5 mg/kg/day i.p., once daily for 10 days
[9] = 5 mg/kg/day i.p., once daily for 10 days
[10] = read-out: Antitumor Activity (T/C, prolongation rate of survival day), 0.15 mg/kg/day i.p., once daily for 10 days
[11] = read-out: Antitumor Activity (T/C, prolongation rate of survival day), 0.31 mg/kg/day i.p., once daily for 10 days
[12] = read-out: Antitumor Activity (T/C, prolongation rate of survival day), 0.625 mg/kg/day i.p., once daily for 10 days
[13] = read-out: Antitumor Activity (T/C, prolongation rate of survival day), 1.25 mg/kg/day i.p., once daily for 10 days
[14] = read-out: Antitumor Activity (T/C, prolongation rate of survival day), 2.5 mg/kg/day i.p., once daily for 10 days
[15] = read-out: Antitumor Activity (T/C, prolongation rate of survival day), 5 mg/kg/day i.p., once daily for 10 days

SMILES | Antitumor Activity (T/C, prolongation rate of survival day) [4] [%] | Antitumor Activity (T/C, prolongation rate of survival day) [5] [%] | Antitumor Activity (T/C, prolongation rate of survival day) [6] [%] | Antitumor Activity (T/C, prolongation rate of survival day) [7] [%] | Antitumor Activity (T/C, prolongation rate of survival day) [8] [%] | Antitumor Activity (T/C, prolongation rate of survival day) [9] [%] | response vs control in vivo at 0.15 mg/kg [10] [%] | response vs control in vivo at 0.31 mg/kg [11] [%] | response vs control in vivo at 0.625 mg/kg [12] [%] | response vs control in vivo at 1.25 mg/kg [13] [%] | response vs control in vivo at 2.5 mg/kg [14] [%] | other results
COc1cccc2c1C(=O)c1c(O)c3c(c(O)c1C2=O)C[C@@](O)(C(C)=O)C[C@@H]3O[C@H]1C[C@H](N)[C@H](OC2CCCO2)[C@H](C)O1 (stereo partly drawn) [Example 12, 4'-O-(tetrahydrofuranyl) daunomycin] | – | – | – | – | – | – | – | – | – | – | – | response vs control in vivo at 0.15 mg/kg [1]: 99%; response vs control in vivo at 0.31 mg/kg [2]: 105%; response vs control in vivo at 0.625 mg/kg [3]: 111%; response vs control in vivo at 1.25 mg/kg (1.25 mg/kg/day i.p., once daily for 10 days, read-out: Antitumor Activity (T/C, prolongation rate of survival day)): 111%; response vs control in vivo at 2.5 mg/kg (2.5 mg/kg/day i.p., once daily for 10 days, read-out: Antitumor Activity (T/C, prolongation rate of survival day)): 160%; response vs control in vivo at 5 mg/kg (5 mg/kg/day i.p., once daily for 10 days, read-out: Antitumor Activity (T/C, prolongation rate of survival day)): 346%
COc1cccc2c1C(=O)c1c(O)c3c(c(O)c1C2=O)C[C@@](O)(C(=O)CO)C[C@@H]3O[C@H]1C[C@H](N)[C@H](OC(C)OC2CCCCC2)[C@H](C)O1 (single isomer, unassigned) [Example 11-b, 4'-O-(1-cyclohexyloxyethyl) adriamycin b] | 105 | 105 | 105 | 105 | 125 | 145 | – | – | – | – | – | –
COc1cccc2c1C(=O)c1c(O)c3c(c(O)c1C2=O)C[C@@](O)(C(=O)CO)C[C@@H]3O[C@H]1C[C@H](N)[C@H](OC2CCCO2)[C@H](C)O1 (stereo partly drawn) [Example 4, 4'-O-tetrahydrofuranyl adriamycin] | – | – | – | 179 | 360 | 314 | – | – | – | – | – | response vs control in vivo at 0.15 mg/kg [1]: 105%; response vs control in vivo at 0.31 mg/kg [2]: 111%; response vs control in vivo at 0.625 mg/kg [3]: 136%
COC(=O)C1CCCC(O[C@@H]2[C@H](C)O[C@@H](O[C@H]3C[C@](O)(C(C)=O)Cc4c(O)c5c(c(O)c43)C(=O)c3c(OC)cccc3C5=O)C[C@@H]2N)O1 (stereo partly drawn) [Example 15, 4'-O-(6-carbomethoxytetrahydropyranyl) daunomycin] | – | – | – | – | – | – | 100 | 100 | 100 | 100 | 106 | response vs control in vivo at 5 mg/kg [15]: 131%
CCOC(C)O[C@@H]1[C@H](C)O[C@@H](O[C@H]2C[C@](O)(C(C)=O)Cc3c(O)c4c(c(O)c32)C(=O)c2c(OC)cccc2C4=O)C[C@@H]1N (single isomer, unassigned) [Example 16-b, 4'-O-(1-ethyloxyethyl) daunomycin b] | 90 | 96 | 108 | 112 | 133 | 247 | – | – | – | – | – | –
CCOC(C)O[C@@H]1[C@H](C)O[C@@H](O[C@H]2C[C@](O)(C(=O)CO)Cc3c(O)c4c(c(O)c32)C(=O)c2c(OC)cccc2C4=O)C[C@@H]1N (single isomer, unassigned) [Example 7-b, 4'-O-(1-ethyloxyethyl) adriamycin b] | 108 | 108 | 127 | 157 | 151 | 211 | – | – | – | – | – | –
COc1cccc2c1C(=O)c1c(O)c3c(c(O)c1C2=O)C[C@@](O)(C(C)=O)C[C@@H]3O[C@H]1C[C@H](N)[C@H](OC(C)OCC(C)C)[C@H](C)O1 (single isomer, unassigned) [Example 17-b, 4'-O-(1-isobutyloxyethyl) daunomycin b] | 100 | 100 | 100 | 106 | 113 | 188 | – | – | – | – | – | –
CCCCOC(C)O[C@@H]1[C@H](C)O[C@@H](O[C@H]2C[C@](O)(C(=O)CO)Cc3c(O)c4c(c(O)c32)C(=O)c2c(OC)cccc2C4=O)C[C@@H]1N (single isomer, unassigned) [Example 8-a, 4'-O-(1-butyloxyethyl) adriamycin a] | – | – | – | – | – | 163 | 100 | 100 | 119 | 125 | 138 | –
CCOC(C)O[C@@H]1[C@H](C)O[C@@H](O[C@H]2C[C@](O)(C(=O)CO)Cc3c(O)c4c(c(O)c32)C(=O)c2c(OC)cccc2C4=O)C[C@@H]1N (single isomer, unassigned) [Example 7-a, 4'-O-(1-ethyloxyethyl) adriamycin a] | – | – | – | – | 277 | 108 | 96 | 101 | 127 | 145 | – | –
CCCCOC(C)O[C@@H]1[C@H](C)O[C@@H](O[C@H]2C[C@](O)(C(C)=O)Cc3c(O)c4c(c(O)c32)C(=O)c2c(OC)cccc2C4=O)C[C@@H]1N (single isomer, unassigned) [Example 18-b, 4'-O-(1-butyloxyethyl) daunomycin b] | 103 | 96 | 110 | 110 | 151 | 188 | – | – | – | – | – | –
COc1cccc2c1C(=O)c1c(O)c3c(c(O)c1C2=O)C[C@@](O)(C(C)=O)C[C@@H]3O[C@H]1C[C@H](N)[C@H](OC(C)OCC(C)C)[C@H](C)O1 (single isomer, unassigned) [Example 17-a, 4'-O-(1-isobutyloxyethyl) daunomycin a] | – | – | – | – | – | 156 | 100 | 100 | 100 | 100 | 119 | –
COc1cccc2c1C(=O)c1c(O)c3c(c(O)c1C2=O)C[C@@](O)(C(C)=O)C[C@@H]3O[C@H]1C[C@H](N)[C@H](OC2CCCC(OC)O2)[C@H](C)O1 (single isomer, unassigned) [Example 14-a, 4'-O-(6-methoxytetrahydropyranyl) daunomycin a] | – | – | – | – | – | 232 | 100 | 100 | 100 | 106 | 125 | –
COc1cccc2c1C(=O)c1c(O)c3c(c(O)c1C2=O)C[C@@](O)(C(=O)CO)C[C@@H]3O[C@H]1C[C@H](N)[C@H](OC(C)OC2CCCCC2)[C@H](C)O1 (single isomer, unassigned) [Example 11-a, 4'-O-(1-cyclohexyloxyethyl) adriamycin a] | – | – | – | – | – | 184 | 105 | 99 | 105 | 118 | 125 | –
COc1cccc2c1C(=O)c1c(O)c3c(c(O)c1C2=O)C[C@@](O)(C(=O)CO)C[C@@H]3O[C@H]1C[C@H](N)[C@H](OC(C)OCCCCCC(C)C)[C@H](C)O1 (single isomer, unassigned) [Example 10-a, 4'-O-(1-(6-methylheptyloxy)ethyl) adriamycin a] | – | – | – | – | – | – | 105 | 92 | 99 | 118 | 125 | response vs control in vivo at 5 mg/kg [15]: 125%
